According to ChEMBL document CHEMBL6087476, “Positive Charge-Concentrated Dimeric Lipopeptides with Enhanced Protease Resistance: A Potential Solution for Systemic Bacterial Infections” (J Med Chem, 2025):
In brackets after ≈: the same amount, converted by molar mass. Activity calls are given as the source filed them. No cut-off for these calls is given here.

Columns and labels:
Escherichia coli [1] = test: Antimicrobial activity against Escherichia coli ATCC 25922 assessed as increase in absorbance incubated for 20 to 22 hrs; assay type: functional; conditions: time 20-22 hrs
Escherichia coli [2] = test: Antimicrobial activity against Escherichia coli K88 assessed as increase in absorbance incubated for 20 to 22 hrs; assay type: functional; conditions: time 20-22 hrs
Escherichia coli [3] = test: Antimicrobial activity against Escherichia coli K99 assessed as increase in absorbance incubated for 20 to 22 hrs; assay type: functional; conditions: time 20-22 hrs
Salmonella typhimurium [4] = test: Antimicrobial activity against Salmonella typhimurium 7731 assessed as increase in absorbance incubated for 20 to 22 hrs; assay type: functional, Salmonella enterica subsp. enterica serovar Typhimurium; conditions: Salmonella enterica, time 20-22 hrs
Salmonella typhimurium [5] = test: Antimicrobial activity against Salmonella typhimurium 14028 assessed as increase in absorbance incubated for 20 to 22 hrs; assay type: functional, Salmonella enterica subsp. enterica serovar Typhimurium; conditions: Salmonella enterica, time 20-22 hrs
Pseudomonas aeruginosa [6] = test: Antimicrobial activity against Pseudomonas aeruginosa 27853 assessed as increase in absorbance incubated for 20 to 22 hrs; assay type: functional; conditions: time 20-22 hrs
Staphylococcus aureus [7] = test: Antimicrobial activity against Staphylococcus aureus 29213 assessed as increase in absorbance incubated for 20 to 22 hrs; assay type: functional; conditions: time 20-22 hrs
Enterococcus faecalis = test: Antimicrobial activity against Enterococcus faecalis 29212 assessed as increase in absorbance incubated for 20 to 22 hrs; assay type: functional; conditions: time 20-22 hrs
Staphylococcus aureus [8] = test: Antimicrobial activity against Staphylococcus aureus 25923 assessed as increase in absorbance incubated for 20 to 22 hrs; assay type: functional; conditions: time 20-22 hrs
Staphylococcus aureus [9] = test: Antimicrobial activity against methicillin-resistant Staphylococcus aureus 43300 assessed as increase in absorbance incubated for 20 to 22 hrs; assay type: functional; conditions: time 20-22 hrs
[10] = system: Staphylococcus epidermidis; test: Antimicrobial activity against Staphylococcus epidermidis 12228 assessed as increase in absorbance incubated for 20 to 22 hrs; assay type: functional; conditions: time 20-22 hrs
[11] = Hemolytic activity in healthy human RBC assessed as hemolysis incubated for 1 hr by microplate reader; assay type: toxicity, cell-based; conditions: erythrocyte
[12] = Cytotoxicity against porcine IPEC-J2 cells assessed as cell death measured after 18 to 24 hrs by MTT assay; assay type: functional; conditions: Sus scrofa, time 18-24 hrs
RAW264.7 = test: Cytotoxicity against mouse RAW264.7 cells assessed as cell death measured after 18 to 24 hrs by MTT assay; assay type: functional; conditions: time 18-24 hrs
HEK-293T = test: Cytotoxicity against human HEK293T cells assessed as cell death measured after 18 to 24 hrs by MTT assay; assay type: functional; conditions: time 18-24 hrs
Acinetobacter baumannii [13] = test: Antimicrobial activity against Acinetobacter baumannii AB1901 assessed as increase in absorbance incubated for 20 to 22 hrs; assay type: functional; conditions: time 20-22 hrs
Acinetobacter baumannii [14] = test: Antimicrobial activity against Acinetobacter baumannii AB1902 assessed as increase in absorbance incubated for 20 to 22 hrs; assay type: functional; conditions: time 20-22 hrs
Pseudomonas aeruginosa [15] = test: Antimicrobial activity against Pseudomonas aeruginosa 25349 assessed as increase in absorbance incubated for 20 to 22 hrs; assay type: functional; conditions: time 20-22 hrs
Staphylococcus aureus [16] = test: Antimicrobial activity against Staphylococcus aureus 11011 assessed as increase in absorbance incubated for 20 to 22 hrs; assay type: functional; conditions: time 20-22 hrs
Escherichia coli [17] = test: Antimicrobial activity against Escherichia coli ATCC 25922 assessed as increase in absorbance incubated for 20 to 22 hrs in presence of Fe3+ physiological salt; assay type: functional, organism-based; conditions: time 20-22 hrs
Escherichia coli [18] = test: Antimicrobial activity against Escherichia coli ATCC 25922 assessed as increase in absorbance incubated for 20 to 22 hrs in presence of Mg2+ physiological salt; assay type: functional, organism-based; conditions: time 20-22 hrs
Escherichia coli [19] = test: Antimicrobial activity against Escherichia coli ATCC 25922 assessed as increase in absorbance incubated for 20 to 22 hrs in presence of […] physiological salt; assay type: functional, organism-based; conditions: time 20-22 hrs
Escherichia coli [20] = test: Antimicrobial activity against Escherichia coli ATCC 25922 assessed as increase in absorbance incubated for 20 to 22 hrs in presence of NH4+ physiological salt; assay type: functional, organism-based; conditions: time 20-22 hrs
Escherichia coli [21] = test: Antimicrobial activity against Escherichia coli ATCC 25922 assessed as increase in absorbance incubated for 20 to 22 hrs in presence of K+ physiological salt; assay type: functional, organism-based; conditions: time 20-22 hrs
Escherichia coli [22] = test: Antimicrobial activity against Escherichia coli ATCC 25922 assessed as increase in absorbance incubated for 4 hrs in presence of 12.5% serum; assay type: functional, organism-based
Escherichia coli [23] = test: Antimicrobial activity against Escherichia coli ATCC 25922 assessed as increase in absorbance incubated for 4 hrs in presence of 25% serum; assay type: functional, organism-based
Escherichia coli [24] = test: Antimicrobial activity against Escherichia coli ATCC 25922 assessed as increase in absorbance incubated for 4 hrs in presence of 50% serum; assay type: functional, organism-based
Escherichia coli [25] = test: Antimicrobial activity against Escherichia coli ATCC 25922 assessed as increase in absorbance at 8 mg/ml incubated for 8 hrs in presence of trypsin; assay type: functional, organism-based
Escherichia coli [26] = test: Antimicrobial activity against Escherichia coli ATCC 25922 assessed as increase in absorbance at 8 mg/ml incubated for 8 hrs in presence of chymotrypsin; assay type: functional, organism-based
Escherichia coli [27] = test: Antimicrobial activity against Escherichia coli ATCC 25922 assessed as increase in absorbance at 8 mg/ml incubated for 8 hrs in presence of pepsin; assay type: functional, organism-based
Escherichia coli [28] = test: Antibiofilm activity against Escherichia coli ATCC 25922 biofilm assessed as inhibition of biofilm formation at 2 uM; assay type: functional, organism-based
Escherichia coli [29] = test: Antibiofilm activity against Escherichia coli ATCC 25922 biofilm assessed as removal of matured biofilm at 16 uM; assay type: functional, organism-based
Lipopolysaccharide (LPS) = test: Binding affinity to Escherichia coli O111:B4 Lipopolysaccharide by fluorescent probe BODIPYTR-cadaverine (BC) assay; conditions: dose 1-16 µM
Escherichia coli [30] = test: Antimicrobial activity against Escherichia coli ATCC 25922 assessed as increase in absorbance at MIC concentration in presence of < 8 ug/ml Lipopolysaccharide incubated for 8 hrs; assay type: functional, organism-based; conditions: dose < 8.0 µg/ml
Escherichia coli [31] = test: Antimicrobial activity against Escherichia coli ATCC 25922 assessed as increase in absorbance at MIC concentration in presence of […] ug/ml Lipopolysaccharide incubated for 8 hrs; assay type: functional, organism-based; conditions: dose 64.0 µg/ml
Cell membrane [32] = test: Induction of Outer membrane permeability in Escherichia coli ATCC 25922 incubated for 30 mins by N-phenyl-1-naphthylamine (NPN) uptake assay; assay type: subcellular; conditions: dose 1-16 µM
Cell membrane [33] = test: Induction of depolarization of cytoplasmic membrane (CM) in Escherichia coli ATCC 25922 assessed as fluorescence changes at 1/2 to 3 times of MIC by fluorescent probe DiSC3-5 assay; assay type: subcellular; conditions: time 1000-3000 sec
Cell membrane [34] = test: Induction of depolarization of cytoplasmic membrane (CM) in Escherichia coli ATCC 25922 assessed as fluorescence changes at 1/2 to 3 times of MIC measured after 1000 to 3000 seconds by fluorescent probe DiSC3-5 assay; assay type: subcellular; conditions: time 1000-3000 sec
Cell membrane [35] = test: Induction of cytoplasmic membrane (CM) permeabilization in Escherichia coli ATCC 25922 assessed as utilization of ONPG at 1/2 MIC; assay type: subcellular
Escherichia coli [36] = test: Induction of ROS accumulation in Escherichia coli ATCC 25922 at 4 uM incubated for 30 mins by DCFH-DA assay; assay type: functional, organism-based
Escherichia coli [37] = test: Inhibition of respiratory chain dehydrogenase (RCD) activity in Escherichia coli ATCC 25922 at 4 uM incubated for 90 mins by TTC assay
Escherichia coli [38] = test: Reduction in intracellular ATP level in Escherichia coli ATCC 25922 at 2 uM measured after 1 hr incubation by Enhanced ATP assay kit; assay type: functional; design: scale not given: the % may be the effect or the level left
Escherichia coli [39] = test: Induction of membrane damage in Escherichia coli ATCC 25922 assessed as damaged membrane surface (irregular vesicles protrusions) at 8 uM measured after 1 hr incubation by SEM analysis; assay type: functional, organism-based
Escherichia coli [40] = test: Induction of membrane damage in Escherichia coli ATCC 25922 assessed as damaged membrane surface by analysing leakage (hollow interiors) at 8 uM measured after 1 hr incubation by TEM analysis; assay type: functional, organism-based
Escherichia coli [41] = test: Induction of membrane damage in Escherichia coli ATCC 25922 assessed as ruptured membrane by analysing red fluorescence at 8 uM measured after 1 hr incubation by PI - live and dead staining based fluorescence microscopy; assay type: functional, organism-based
Escherichia coli [42] = test: Induction of membrane damage in Escherichia coli ATCC 25922 assessed as ruptured membrane by analysing green fluorescence at 8 uM measured after 1 hr incubation by SYTO - live and dead staining based fluorescence microscopy; assay type: functional, organism-based
Escherichia coli [43] = test: Resistance fold, ratio of MIC for Escherichia coli ATCC 25922 measured after 30 day passage period to MIC for Escherichia coli ATCC 25922; assay type: functional
Escherichia coli [44] = test: Resistance fold, ratio of MIC for Escherichia coli ATCC 25922 measured after 7 day passage period to MIC for Escherichia coli ATCC 25922; assay type: functional
Mus musculus [45] = test: Anti-inflammatory activity against Escherichia coli ATCC 25922-induced peritonitis ICR mouse model assessed as decrease in IL-1 beta level in serum spleen at 5 mg/kg, ip measured after 12 hrs; assay type: functional, organism-based
Mus musculus [46] = test: Anti-inflammatory activity against Escherichia coli ATCC 25922-induced peritonitis ICR mouse model assessed as decrease in IL-6 level in serum spleen at 5 mg/kg, ip measured after 12 hrs; assay type: functional, organism-based
Mus musculus [47] = test: Anti-inflammatory activity against Escherichia coli ATCC 25922-induced peritonitis ICR mouse model assessed as decrease in TNF-alpha level in serum spleen at 5 mg/kg, ip measured after 12 hrs; assay type: functional, organism-based

## CCCCCCCCCC(=O)NCCCC[C@H](NC(=O)[C@@H](N)CSSC[C@H](N)C(=O)N[C@@H](CCCCNC(=O)CCCCCCCCC)C(=O)NCC(=O)NCC(=O)NCC(=O)N[C@H](CCCNC(=N)N)C(=O)N[C@@H](CCCNC(=N)N)C(=O)N[C@@H](CCCNC(=N)N)C(=O)N1CCC[C@H]1C(=O)O)C(=O)NCC(=O)NCC(=O)NCC(=O)N[C@H](CCCNC(=N)N)C(=O)N[C@@H](CCCNC(=N)N)C(=O)N[C@@H](CCCNC(=N)N)C(=O)N1CCC[C@H]1C(=O)O
Escherichia coli [1]
  MIC: 4 µM (≈ 9.12 µg/mL)
Escherichia coli [2]
  MIC: 4 µM (≈ 9.12 µg/mL)
Escherichia coli [3]
  MIC: 8 µM (≈ 18.2 µg/mL)
Salmonella typhimurium [4]
  MIC: 8 µM (≈ 18.2 µg/mL)
Salmonella typhimurium [5]
  MIC: 4 µM (≈ 9.12 µg/mL)
Pseudomonas aeruginosa [6]
  MIC: 8 µM (≈ 18.2 µg/mL)
Staphylococcus aureus [7]
  MIC: 8 µM (≈ 18.2 µg/mL)
Enterococcus faecalis
  MIC: 8 µM (≈ 18.2 µg/mL)
Staphylococcus aureus [8]
  MIC: 8 µM (≈ 18.2 µg/mL)
Staphylococcus aureus [9]
  MIC: 8 µM (≈ 18.2 µg/mL)
[10]
  MIC: 8 µM (≈ 18.2 µg/mL)
[11]
  HC10: 256 µM
[12]
  IC10: 256 µM
RAW264.7
  IC10: 256 µM
HEK-293T
  IC10: 256 µM
Acinetobacter baumannii [13]
  MIC: 4 µM (≈ 9.12 µg/mL)
Acinetobacter baumannii [14]
  MIC: 16 µM (≈ 36.5 µg/mL)
Pseudomonas aeruginosa [15]
  MIC: 4 µM (≈ 9.12 µg/mL)
Staphylococcus aureus [16]
  MIC: 8 µM (≈ 18.2 µg/mL)
Escherichia coli [17]
  Activity: Active
Escherichia coli [18]
  Activity: Active
Escherichia coli [19]
  Activity: Active
Escherichia coli [20]
  Activity: Active
Escherichia coli [21]
  Activity: Active
Escherichia coli [22]
  Activity: Active
Escherichia coli [23]
  Activity: Active
Escherichia coli [24]
  Activity: Active
Escherichia coli [25]
  Activity: Active; Negligible Alteration In Mic Values Found
Escherichia coli [26]
  Activity: Active; Negligible Alteration In Mic Values Found
Escherichia coli [27]
  Activity: Active; Negligible Alteration In Mic Values Found
Escherichia coli [28]
  Activity: Active
Escherichia coli [29]
  Activity: Active
Lipopolysaccharide (LPS)
  Activity: Dose-dependent-effect
Escherichia coli [30]
  Activity: Active
Escherichia coli [31]
  Activity: inactive
Cell membrane [32]
  Activity: Dose-dependent-effect
Cell membrane [33]
  Activity: Time-dependent-effect
Cell membrane [34]
  Activity: Dose-dependent-effect
Cell membrane [35]
  Activity: Active
Escherichia coli [36]
  Activity: Active
Escherichia coli [37]
  inhibition: Active
Escherichia coli [38]
  Activity: ~40%
Escherichia coli [39]
  Activity: Active
Escherichia coli [40]
  Activity: Active
Escherichia coli [41]
  Activity: Active
Escherichia coli [42]
  Activity: Active
Escherichia coli [43]
  fold change (FC): <=2

## CN(C)[C@@H]1C(O)=C(C(N)=O)C(=O)[C@@]2(O)C(O)=C3C(=O)c4c(O)cccc4[C@@](C)(O)[C@H]3C[C@@H]12 [TETRACYCLINE]
Escherichia coli [44]
  fold change (FC): 8

## CNC(C)[C@@H]1CC[C@@H](N)[C@@H](O[C@H]2[C@H](O)[C@@H](O[C@H]3OC[C@](C)(O)[C@H](NC)[C@H]3O)[C@H](N)C[C@@H]2N)O1.CN[C@@H]1[C@@H](O)[C@@H](O[C@@H]2[C@@H](O)[C@H](O[C@H]3O[C@H](C(C)N)CC[C@H]3N)[C@@H](N)C[C@H]2N)OC[C@]1(C)O.CN[C@@H]1[C@@H](O)[C@@H](O[C@@H]2[C@@H](O)[C@H](O[C@H]3O[C@H](CN)CC[C@H]3N)[C@@H](N)C[C@H]2N)OC[C@]1(C)O (stereo not given in full)
Acinetobacter baumannii [13]
  MIC: 0.25 µM
Acinetobacter baumannii [14]
  MIC: > 64 µM
Pseudomonas aeruginosa [15]
  MIC: 0.25 µM
Staphylococcus aureus [16]
  MIC: > 64 µM
Mus musculus [45]
  Activity: Active
Mus musculus [46]
  Activity: Active
Mus musculus [47]
  Activity: Active
